Experimental data from paper PMC6277767, “Broad and Region-Specific Impacts of the Synthetic Cannabinoid CP 55,940 in Adolescent and Adult Female Mouse Brains” (Frontiers in Molecular Neuroscience, 2018).

Tested on: CD1 female mouse brain lipidome
Assay: Brain-region lipid levels (HPLC/MS/MS lipidomics) 2 h after single i.p. 3 mg/kg CP 55,940 vs vehicle
Format: in vivo
Parameters: N-arachidonoyl phenylalanine level, Mean / N-stearoyl tryptophan level, Mean / N-stearoyl proline level, Mean / N-stearoyl leucine level, Mean / N-stearoyl phenylalanine level, Mean / N-stearoyl serine level, Mean / N-stearoyl methionine level, Mean: unit: moles per gram
Conditions: midbrain
Method: The Bloomington Institutional Animal Care and Use Committee of Indiana University reviewed and approved the animal procedures. Female mice from the CD1 strain were utilized to match our study examining THC’s effects on the brain lipidome ([Leishman et al., 2018]). Mice were given a single i.p. injection of either 3 mg/kg CP or 1:1:18 cremophor:ethanol:saline vehicle (please refer to the section “3 mg/kg CP Is Relevant for Synthetic Cannabinoid Abuse and Has Stronger Effects on the Female Mouse Brain Lipidome During Adolescence” for a justification of dose and use of female mice). Three different age groups were given injections: PND 35 and PND 50 adolescents, and adult mice (PND 113). At least eight mice in each age group received CP and at least eight received vehicle. Matching the THC study time course ([Leishman et al., 2018]), mice were sacrificed via rapid decapitation 2 h after injection. Brains were immediately removed and flash-frozen in liquid nitrogen, and then stored at -80°C until dissections were performed. Brains were dissected on an ice-cold dissection plate into the following regions: STR, HIPP, CER, THAL, CTX, HYP, MID, and STEM. These abbreviations for these brain areas will be used exclusively when discussing the results generated by these specific dissections. Each dissected area was immediately placed in liquid nitrogen and then stored at -80°C until used for lipid extraction.
Tissue extracts were performed as previously described ([Bradshaw et al., 2006]; [Stuart et al., 2013]; [Raboune et al., 2014]; [Leishman et al., 2016a],[b], [2017], [2018]). First, samples were shock frozen in liquid nitrogen, weighed, and transferred to a centrifuge tube. The mass of the largest sample was multiplied by 50 to determine how many milliliters of HPLC-grade methanol (Fisher, Fair Lawn, NJ, United States) to add. Then, samples were spiked with 500 pmol deuterium-labeled NAGly (d8NAGly; Cayman Chemical, Ann Arbor, MI, United States). Samples were placed on ice in darkness for 2 h then individually homogenized and centrifuged at 19,000 × g for 20 min at 20°C. Supernatants were diluted with HPLC water (purified in house) to make a solution of 75% water, 25% supernatant. Lipids were partially purified on C18 solid phase extraction columns (Agilent, Palo Alto, CA, United States). A series of four elutions with 1.5 mL of 60%, 75%, 85%, and 100% methanol were collected ([Stuart et al., 2013]; [Leishman et al., 2016a],[b], [2018]).
As previously described ([Bradshaw et al., 2006]; [Tan et al., 2006]; [Smoum et al., 2010]; [Stuart et al., 2013]; [Tortoriello et al., 2013]; [Raboune et al., 2014]; [Leishman et al., 2016a],[b], [2017], [2018]), samples were analyzed using an Applied Biosystems API 3000 triple quadrupole mass spectrometer with electrospray ionization (Foster City, CA, United States). Using an Agilent XDB-C18 reversed phase analytical column and optimized mobile phase gradients, 20 μL from each elution were chromatographed. Two Shimadzu 10ADvp pumps (Columbia, MD, United States) provided the pressure for gradient elution. Mobile phase A: 20% methanol, 80% water (v/v) and 1 mM ammonium acetate (Sigma, St. Louis, MO, United States). Mobile phase B: 100% methanol, 1 mM ammonium acetate. Every method run began with 0% mobile phase B, reached 100% mobile phase B flowing at 0.2 mL/min, and gradually returned to 0% mobile phase B.
This screening library will be referred to as the lipidome when discussing data from this study. HPLC/MS/MS data were analyzed using Analyst software (Applied Biosystems) ([Bradshaw et al., 2006]; [Tan et al., 2006]; [Stuart et al., 2013]; [Tortoriello et al., 2013]; [Raboune et al., 2014]; [Leishman et al., 2016a],[b], [2017], [2018]). Chromatograms (Supplementary Figure 3) were generated by determining the retention time of analytes from the analytical column with a [M-1] or [M+1] parent peak and a fragmentation peak corresponding to the programmed values. […]

[1] = PND 50 female mice, 3mg/kg CP 55,940
[2] = PND 35 WT adolescent female mice, 3 mg/kg

SMILES: CCCCCCC(C)(C)c1ccc([C@@H]2C[C@H](O)CC[C@H]2CCCO)c(O)c1 [CP 55,940]
- N-linoleoyl serine level, Mean [1]: 6.73E-11
- N-linoleoyl tryptophan level, Mean [1]: BDL
- N-linoleoyl tyrosine level, Mean [1]: BDL
- N-linoleoyl valine level, Mean [1]: BDL
- N-nervonoyl valine level, Mean [1]: BDL
- N-oleoyl GABA level, Mean [1]: 5.62E-12
- N-oleoyl alanine level, Mean [1]: 6.9E-13
- N-oleoyl dopamine level, Mean [1]: BDL
- N-oleoyl ethanolamine level, Mean [1]: 1.01E-10
- N-oleoyl glycine level, Mean [1]: 3.06E-12
- N-oleoyl leucine level, Mean [1]: 5.64E-13
- N-oleoyl methionine level, Mean [1]: 3.18E-13
- N-oleoyl phenylalanine level, Mean [1]: 1.15E-12
- N-oleoyl proline level, Mean [1]: BDL
- N-oleoyl serine level, Mean [1]: 1.24E-10
- N-oleoyl tryptophan level, Mean [1]: BDL
- N-oleoyl tyrosine level, Mean [1]: 3.77E-13
- N-oleoyl valine level, Mean [1]: 6.01E-14
- N-palmitoyl GABA level, Mean [1]: 1.3E-11
- N-palmitoyl alanine level, Mean [1]: 1.18E-12
- N-palmitoyl ethanolamine level, Mean [1]: 7.69E-11
- N-palmitoyl glycine level, Mean [1]: 1.39E-11
- N-palmitoyl leucine level, Mean [1]: 1.38E-12
- N-palmitoyl methionine level, Mean [1]: 1.13E-12
- N-palmitoyl phenylalanine level, Mean [1]: 1.94E-12
- N-palmitoyl proline level, Mean [1]: BDL
- N-palmitoyl serine level, Mean [1]: 1.74E-11
- N-palmitoyl tryptophan level, Mean [1]: BDL
- N-palmitoyl tyrosine level, Mean [1]: 8.39E-13
- N-palmitoyl valine level, Mean [1]: 3.48E-13
- N-stearoyl GABA level, Mean [1]: 1.21E-11
- N-stearoyl alanine level, Mean [1]: 3.21E-13
- N-stearoyl ethanolamine level, Mean [1]: 3.26E-11
- N-stearoyl glycine level, Mean [1]: 1.13E-12
- N-stearoyl leucine level, Mean [1]: 7.66E-13
- N-stearoyl methionine level, Mean [1]: 1.11E-12
- N-stearoyl phenylalanine level, Mean [1]: 1.62E-12
- N-stearoyl proline level, Mean [1]: BDL
- N-stearoyl serine level, Mean [1]: 3.85E-11
- N-stearoyl tryptophan level, Mean [1]: BDL
- N-stearoyl tyrosine level, Mean [1]: 1.16E-13
- Oleic acid level, Mean [1]: 3.11E-10
- PGE2 level, Mean [1]: 1.09E-10
- PhosphoLEA level, Mean [1]: PISSR
- THC level, Mean [1]: BDL
- 2-arachidonoyl glycerol level, Mean [2]: 3.74E-10
- 2-linoleoyl glycerol level, Mean [2]: 1.59E-10
- 2-oleoyl glycerol level, Mean [2]: 1.88E-09
- 2-palmitoyl glycerol level, Mean [2]: 4.69E-10
- 6-ketoPGF1α level, Mean [2]: 2.09E-11
- Arachidonic acid level, Mean [2]: 1.63E-09
- Linoleic acid level, Mean [2]: 5.14E-10
- N- stearoyl valine level, Mean [2]: 1.32E-12
- N-arachidonoyl GABA level, Mean [2]: 1.53E-11
- N-arachidonoyl alanine level, Mean [2]: 8.2E-12
- N-arachidonoyl ethanolamine level, Mean [2]: 2.18E-11
- N-arachidonoyl glycine level, Mean [2]: 4.42E-11
- N-arachidonoyl methionine level, Mean [2]: 1.48E-12
- N-arachidonoyl phenylalanine level, Mean [2]: 1.53E-12
- N-arachidonoyl serine level, Mean [2]: 6.81E-12
- N-arachidonoyl taurine level, Mean [2]: 3.84E-11
- N-arachidonoyl tyrosine level, Mean [2]: 1.5E-12
- N-docosahexaenoyl GABA level, Mean [2]: 2.08E-12
- N-docosahexaenoyl alanine level, Mean [2]: 3.78E-12
- N-docosahexaenoyl ethanolamine level, Mean [2]: 3.99E-11
- N-docosahexaenoyl glycine level, Mean [2]: 1.87E-11
- N-docosahexaenoyl leucine level, Mean [2]: 7.41E-13
- N-docosahexaenoyl methionine level, Mean [2]: 4.7E-13
- N-docosahexaenoyl phenylalanine level, Mean [2]: 1.08E-12
- N-docosahexaenoyl serine level, Mean [2]: 2.39E-11
- N-docosahexaenoyl tyrosine level, Mean [2]: 1.6E-12
- N-docosahexaenoyl valine level, Mean [2]: 3.26E-13
- N-linoleoyl GABA level, Mean [2]: 7.43E-13
- N-linoleoyl alanine level, Mean [2]: 1.52E-12
- N-linoleoyl ethanolamine level, Mean [2]: 3.78E-11
- N-linoleoyl glycine level, Mean [2]: 4.58E-12
- N-linoleoyl leucine level, Mean [2]: 3.56E-13
- N-linoleoyl phenylalanine level, Mean [2]: 2.21E-13
- N-linoleoyl serine level, Mean [2]: 5.04E-11
- N-oleoyl GABA level, Mean [2]: 4E-12
- N-oleoyl alanine level, Mean [2]: 7.02E-12
- N-oleoyl ethanolamine level, Mean [2]: 1.94E-10
- N-oleoyl glycine level, Mean [2]: 2.31E-11
- N-oleoyl leucine level, Mean [2]: 1.53E-12
- N-oleoyl methionine level, Mean [2]: 1.46E-12
- N-oleoyl phenylalanine level, Mean [2]: 1.6E-12
- N-oleoyl serine level, Mean [2]: 2.91E-10
- N-oleoyl tryptophan level, Mean [2]: 1.39E-13
- N-oleoyl tyrosine level, Mean [2]: 1.05E-12
- N-oleoyl valine level, Mean [2]: 1.38E-12
- N-palmitoyl GABA level, Mean [2]: 1.05E-11
- N-palmitoyl alanine level, Mean [2]: 1.05E-11
- N-palmitoyl ethanolamine level, Mean [2]: 9.08E-11
- N-palmitoyl glycine level, Mean [2]: 4.59E-11
- N-palmitoyl leucine level, Mean [2]: 3.23E-12
- N-palmitoyl methionine level, Mean [2]: 2.56E-12
- N-palmitoyl phenylalanine level, Mean [2]: 3.04E-12
- N-palmitoyl proline level, Mean [2]: 9.03E-13
- N-palmitoyl serine level, Mean [2]: 9.45E-11
- N-palmitoyl tryptophan level, Mean [2]: 4.42E-13
- N-palmitoyl tyrosine level, Mean [2]: 2.19E-12
- N-palmitoyl valine level, Mean [2]: 2.86E-12
